Like-named read-outs stand apart in the source and are kept apart here.
Key:
Assay in all cases: TGFα-shedding assay-based GPCR screening with chimeric Gα subunit proteins
Type in all cases: cell-based
Conditions in all cases: 10µM, Favipiravir 100μM
348 GPCRs [1] = target: T1, 348 GPCRs (Homo sapiens, UniProt O00270)
T1 construct: expressed in transfected cells; host or cells: HEK293A

348 GPCRs [2] = target: T2, 348 GPCRs (Homo sapiens, UniProt O14626)
T2 construct: expressed in transfected cells; host or cells: HEK293A
T2 sequence (O14626 1-319): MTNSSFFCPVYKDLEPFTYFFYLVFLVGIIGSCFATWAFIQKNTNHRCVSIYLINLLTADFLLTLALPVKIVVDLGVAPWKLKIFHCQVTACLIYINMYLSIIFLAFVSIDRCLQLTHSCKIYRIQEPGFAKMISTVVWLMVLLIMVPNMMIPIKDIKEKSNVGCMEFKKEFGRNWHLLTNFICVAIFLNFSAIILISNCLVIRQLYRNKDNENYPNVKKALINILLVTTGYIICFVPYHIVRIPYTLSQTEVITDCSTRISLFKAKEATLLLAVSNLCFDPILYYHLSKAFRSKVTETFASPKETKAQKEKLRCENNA

348 GPCRs [3] = target: 348 GPCRs (Homo sapiens, UniProt O60894)
348 GPCRs [4] = target: T3, 348 GPCRs (Homo sapiens, UniProt P25116)
T3 construct: expressed in transfected cells; host or cells: HEK293A
T3 sequence (P25116 22-425): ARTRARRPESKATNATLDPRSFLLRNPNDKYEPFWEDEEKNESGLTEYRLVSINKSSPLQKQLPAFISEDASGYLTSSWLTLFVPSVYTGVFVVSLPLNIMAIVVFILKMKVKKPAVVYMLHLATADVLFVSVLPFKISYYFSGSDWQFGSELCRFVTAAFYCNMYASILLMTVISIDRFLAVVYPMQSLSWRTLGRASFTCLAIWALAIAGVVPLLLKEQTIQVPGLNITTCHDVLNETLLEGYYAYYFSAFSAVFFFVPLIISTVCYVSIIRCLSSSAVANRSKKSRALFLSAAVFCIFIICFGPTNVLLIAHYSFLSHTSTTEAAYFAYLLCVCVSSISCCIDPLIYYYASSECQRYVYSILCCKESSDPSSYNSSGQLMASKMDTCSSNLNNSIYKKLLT

348 GPCRs [5] = target: T4, 348 GPCRs (Homo sapiens, UniProt P50052)
T4 construct: expressed in transfected cells; host or cells: HEK293A
T4 sequence (P50052 1-363): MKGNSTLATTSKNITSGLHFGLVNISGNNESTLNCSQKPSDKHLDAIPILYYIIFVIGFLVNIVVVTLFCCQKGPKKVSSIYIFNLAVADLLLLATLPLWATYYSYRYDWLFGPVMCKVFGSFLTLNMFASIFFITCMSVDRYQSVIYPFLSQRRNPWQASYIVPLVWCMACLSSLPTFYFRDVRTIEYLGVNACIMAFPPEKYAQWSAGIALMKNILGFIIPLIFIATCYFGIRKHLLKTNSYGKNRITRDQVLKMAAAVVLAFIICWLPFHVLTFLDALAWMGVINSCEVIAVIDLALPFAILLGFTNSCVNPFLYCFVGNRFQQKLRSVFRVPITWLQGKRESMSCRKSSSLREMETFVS

348 GPCRs [6] = target: T5, 348 GPCRs (Homo sapiens, UniProt Q8NDV2)
T5 construct: expressed in transfected cells; host or cells: HEK293A

348 GPCRs [7] = target: T6, 348 GPCRs (Homo sapiens, UniProt Q969N4)
T6 construct: expressed in transfected cells; host or cells: HEK293A
T6 sequence (Q969N4 1-342): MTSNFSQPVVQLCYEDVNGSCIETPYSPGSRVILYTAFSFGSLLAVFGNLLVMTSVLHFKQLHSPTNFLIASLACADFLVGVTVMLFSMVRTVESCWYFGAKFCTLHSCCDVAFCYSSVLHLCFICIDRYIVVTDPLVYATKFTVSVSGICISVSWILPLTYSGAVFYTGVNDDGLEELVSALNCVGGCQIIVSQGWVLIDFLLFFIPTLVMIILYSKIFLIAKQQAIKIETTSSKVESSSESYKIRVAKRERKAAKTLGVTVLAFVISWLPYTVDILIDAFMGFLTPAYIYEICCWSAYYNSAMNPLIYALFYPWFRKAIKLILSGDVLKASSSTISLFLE

348 GPCRs [8] = target: 348 GPCRs (Homo sapiens, UniProt Q9H228)
348 GPCRs [9] = target: T7, 348 GPCRs (Homo sapiens, UniProt Q9NYW3)
T7 construct: expressed in transfected cells; host or cells: HEK293A
T7 sequence (Q9NYW3 1-318): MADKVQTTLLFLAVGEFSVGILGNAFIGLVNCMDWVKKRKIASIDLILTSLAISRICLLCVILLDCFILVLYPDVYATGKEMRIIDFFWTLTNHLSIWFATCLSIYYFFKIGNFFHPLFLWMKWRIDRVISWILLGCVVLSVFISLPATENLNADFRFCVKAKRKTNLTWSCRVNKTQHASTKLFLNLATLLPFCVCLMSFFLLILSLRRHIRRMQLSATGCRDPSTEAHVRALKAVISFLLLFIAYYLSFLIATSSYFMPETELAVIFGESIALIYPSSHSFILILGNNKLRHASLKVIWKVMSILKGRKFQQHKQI

[10] = GPR31 (G Protein-Coupled Receptor 31), read-out: % GPCR activation compared to TPA
[11] = GPR171 (G Protein-Coupled Receptor 171), read-out: % GPCR activation compared to TPA
[12] = RAMP1 (receptor-activity-modifying protein 1), read-out: % GPCR activation compared to TPA
[13] = F2R (coagulation factor II (thrombin) receptor), read-out: % GPCR activation compared to TPA
[14] = AGTR2 (angiotensin II receptor, type 2), read-out: % GPCR activation compared to TPA
[15] = GPR26 (G Protein-Coupled Receptor 26), read-out: % GPCR activation compared to TPA
[16] = TAAR8 (trace amine associated receptor 8), read-out: % GPCR activation compared to TPA
[17] = S1PR5 (sphingosine-1-phosphate receptor 5), read-out: % GPCR activation compared to TPA
[18] = TAS2R7 (taste receptor, type 2, member 7), read-out: % GPCR activation compared to TPA
[19] = read-out: % GPCR activation compared to TPA, GPR31 (G Protein-Coupled Receptor 31)
[20] = read-out: % GPCR activation compared to TPA, GPR171 (G Protein-Coupled Receptor 171)
[21] = read-out: % GPCR activation compared to TPA, RAMP1 (receptor-activity-modifying protein 1)
[22] = read-out: % GPCR activation compared to TPA, F2R (coagulation factor II (thrombin) receptor)
[23] = read-out: % GPCR activation compared to TPA, AGTR2 (angiotensin II receptor, type 2)
[24] = read-out: % GPCR activation compared to TPA, GPR26 (G Protein-Coupled Receptor 26)
[25] = read-out: % GPCR activation compared to TPA, TAAR8 (trace amine associated receptor 8)
[26] = read-out: % GPCR activation compared to TPA, S1PR5 (sphingosine-1-phosphate receptor 5)
[27] = read-out: % GPCR activation compared to TPA, TAS2R7 (taste receptor, type 2, member 7)

T5 sequence (Q8NDV2 whole entry): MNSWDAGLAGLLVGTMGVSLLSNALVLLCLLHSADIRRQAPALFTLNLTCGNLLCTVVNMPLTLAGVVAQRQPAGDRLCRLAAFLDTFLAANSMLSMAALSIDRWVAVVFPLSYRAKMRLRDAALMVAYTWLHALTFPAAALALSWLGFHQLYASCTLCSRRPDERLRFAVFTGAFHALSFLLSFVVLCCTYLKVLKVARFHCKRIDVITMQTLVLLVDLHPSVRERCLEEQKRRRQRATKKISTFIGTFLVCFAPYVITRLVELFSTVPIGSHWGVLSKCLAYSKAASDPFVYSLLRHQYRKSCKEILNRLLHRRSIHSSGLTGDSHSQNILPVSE
T1 sequence (O00270 whole entry): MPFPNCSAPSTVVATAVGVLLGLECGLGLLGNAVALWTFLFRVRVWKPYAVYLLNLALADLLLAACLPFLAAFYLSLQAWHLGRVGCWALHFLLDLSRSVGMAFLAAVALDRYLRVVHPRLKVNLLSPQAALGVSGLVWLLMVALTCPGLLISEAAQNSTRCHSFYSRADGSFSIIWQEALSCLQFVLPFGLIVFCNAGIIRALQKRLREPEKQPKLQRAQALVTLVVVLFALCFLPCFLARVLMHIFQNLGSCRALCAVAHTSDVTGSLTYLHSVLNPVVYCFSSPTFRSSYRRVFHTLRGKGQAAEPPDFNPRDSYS
Sequence of 348 GPCRs (Homo sapiens, UniProt O60894) (O60894 27-148): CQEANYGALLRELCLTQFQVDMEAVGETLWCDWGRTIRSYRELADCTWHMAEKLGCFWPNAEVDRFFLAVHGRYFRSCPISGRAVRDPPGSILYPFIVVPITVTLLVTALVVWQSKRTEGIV
Sequence of 348 GPCRs (Homo sapiens, UniProt Q9H228) (Q9H228 whole entry): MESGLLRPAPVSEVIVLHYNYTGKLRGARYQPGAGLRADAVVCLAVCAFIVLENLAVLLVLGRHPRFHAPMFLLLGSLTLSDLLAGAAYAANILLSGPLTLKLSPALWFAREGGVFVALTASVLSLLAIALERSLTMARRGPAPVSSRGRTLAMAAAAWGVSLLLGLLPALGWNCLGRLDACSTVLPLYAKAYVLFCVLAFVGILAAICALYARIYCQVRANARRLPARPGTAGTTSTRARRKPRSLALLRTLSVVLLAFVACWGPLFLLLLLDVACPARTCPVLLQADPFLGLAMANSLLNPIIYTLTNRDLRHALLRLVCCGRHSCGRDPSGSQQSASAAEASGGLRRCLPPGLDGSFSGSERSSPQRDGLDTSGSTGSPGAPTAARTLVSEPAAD

activation at 100 µM (348 GPCRs [1]; [10]) [%] | activation at 10 µM (348 GPCRs [2]; [11]) [%] | activation at 100 µM (348 GPCRs [3]; [12]) [%] | activation at 10 µM (348 GPCRs [4]; [13]) [%] | activation at 10 µM (348 GPCRs [5]; [14]) [%] | activation at 100 µM (348 GPCRs [6]; [15]) [%] | activation at 100 µM (348 GPCRs [7]; [16]) [%] | activation at 10 µM (348 GPCRs [8]; [17]) [%] | activation at 10 µM (348 GPCRs [9]; [18]) [%] | Structure (SMILES) | activation at 100 µM (348 GPCRs [1]; [19]) [%] | activation at 10 µM (348 GPCRs [2]; [20]) [%] | activation at 100 µM (348 GPCRs [3]; [21]) [%] | activation at 10 µM (348 GPCRs [4]; [22]) [%] | activation at 10 µM (348 GPCRs [5]; [23]) [%] | activation at 100 µM (348 GPCRs [6]; [24]) [%] | activation at 100 µM (348 GPCRs [7]; [25]) [%] | activation at 10 µM (348 GPCRs [8]; [26]) [%] | activation at 10 µM (348 GPCRs [9]; [27]) [%]
-1.59 | -1.42 | -0.968 | -1.57 | 0.337 | -0.116 | -1.62 | -0.465 | -0.22 | N#C[C@@]1(c2ccc3c(N)ncnn23)O[C@H](CO)[C@@H](O)[C@H]1O [GS441524] |  |  |  |  |  |  |  |  | 
-1.25 | -0.909 | -0.805 | -2.55 | 0.741 | -0.29 | 0.473 | 1.49 | -0.16 | NC(=O)c1nc(F)cnc1O [favipiravir, 6-fluoro-3-hydroxy-2-pyrazinecarboxamide] |  |  |  |  |  |  |  |  | 
-1.71 | -2.4 | -0.742 | -0.992 | 0.537 | -0.581 | -0.135 | -0.945 | -0.399 | CC(C)C(=O)OC[C@H]1O[C@@H](n2ccc(NO)nc2=O)[C@H](O)[C@@H]1O [molnupiravir] |  |  |  |  |  |  |  |  | 
 |  |  |  |  |  |  |  |  | CCC(CC)COC(=O)[C@H](C)N[P@](=O)(OC[C@H]1O[C@@](C#N)(c2ccc3c(N)ncnn23)[C@H](O)[C@@H]1O)Oc1ccccc1 [remdesivir] | -1.64 | 2.61 | 1.07 | -1.45 | 0.676 | 0.188 | 0.465 | -1.2 | 0.159
 |  |  |  |  |  |  |  |  | CC(C)OC(=O)[C@H](C)N[P@](=O)(OC[C@H]1O[C@@H](n2ccc(=O)[nH]c2=O)[C@](C)(F)[C@@H]1O)Oc1ccccc1 [sofosbuvir] | -0.455 | -0.832 | -0.995 | -1.12 | 1.67 | 0.171 | -2.21 | -0.326 | 0.253

Source: article PMC10175918 (Communications Biology, 2023)
